# Reference: article PMC10796410 (Cancer Chemotherapy and Pharmacology, 2023)
# Several values for one entry are separate records, joined by “and”; a condition that tells them apart may be missing. Identical values can stand only once. Like-named read-outs stand apart in the source and are kept apart here.
# Assays:
# MATE1 = test system: MATE1; set-up: method as in earlier work; conditions: in vitro studies; cited from earlier work
# OATP1B1 = test system: OATP1B1; set-up: method as in earlier work; conditions: in vitro studies; cited from earlier work
# OAT3 = test system: OAT3; set-up: method as in earlier work; conditions: in vitro studies; cited from earlier work
# [1] = Plasma pharmacokinetics of olaparib in rats after a single oral dose, alone or with metformin (UPLC-MS/MS, non-compartmental); format: in vivo, Wistar rats; conditions: for concentration at 0.083 h / concentration at 0.167 h / concentration at 0.333 h / concentration at 0.5 h / concentration at 0.75 h / concentration at 1 h / concentration at 2 h / concentration at 3 h / concentration at 4 h / concentration at 6 h / concentration at 8 h / concentration at 10 h / concentration at 12 h / concentration at 24 h / AUC(0-inf) / AUC(0-t) / Cmax / Tmax / Vd/F / k el: male, Wistar, rat, plasma; for concentration at 0.083 h / concentration at 0.167 h / concentration at 0.333 h / concentration at 0.5 h / concentration at 0.75 h / concentration at 1 h / concentration at 2 h / concentration at 3 h / concentration at 4 h / concentration at 6 h / concentration at 8 h / concentration at 10 h / concentration at 12 h / concentration at 24 h: oral, group mean, read-out: Cave_ola; for AUC(0-inf) / AUC(0-t) / Cmax / Tmax / Vd/F / k el: po; for AUC(0-inf) / AUC(0-t) / Cmax / Tmax / Vd/F / k el / Cl/F / t0.5: rat plasma, n = 8, mean ± SD
# Text: All applicable international, national, and/or institutional guidelines for the care and use of animals were followed. The animals were given a standard diet and water ad libitum, and the experimental protocol for this study was approved by the Local Ethics Committee (No. 45/2022, of 27 May 2022), Poznań University of Life Sciences, Department of Animal Physiology and Biochemistry, Wołyńska 35, 60–637 Poznań, Poland. Adult male Wistar rats (weight 380–530 g) were used in the study. The animals were maintained under standard breeding conditions with a 12/12 h light–dark cycle (lights on at 06.00, lights off at 18.00) at constant room temperature (23 ± 2 °C), relative humidity of 55 ± 10% and given ad libitum access to food and water. The animals were allowed to acclimatize for a week before the beginning of the experiments. The rats were divided into three groups. […] The solution for oral metformin administration was prepared in saline at a single dose of 100 mg/kg. Drugs were orally administered to rats by gavage between 7:00 a.m. and 8:00 a.m. […] The blood samples were centrifuged at 5000 rpm for 10 min, and the plasma was transferred to new centrifuge tubes and then stored at – 80 °C.
# A Cortecs UPLC C18 column (2.1 × 50 mm, 1.6 µm, Waters Corporation, Milford, MA, USA) was used for chromatographic separation. The column temperature and injection volume were set at 40 °C and 1 µl, respectively. The mobile phase comprised acetonitrile (eluent A) and 2 mM ammonium acetate in water (eluent B) with 0.1% 98–100% formic acid. The flow rate was maintained at 0.3 ml/min. The gradient elution was as follows: 0–3 min, 5% A; […]; 3–5 min, linear from 5 to 95% A; 5–6 min, linear from 95 to 5% A. The mass spectrometer operated in the multiple reaction monitoring mode.
# The maximum plasma concentration (Cmax) and the time to reach the Cmax (tmax) were obtained directly from the measured values. All of the above-mentioned parameters underwent statistical analysis.
# MATE2K = test system: MATE2K; set-up: method as in earlier work; conditions: in vitro studies; cited from earlier work
# OCT1 = test system: OCT1; set-up: method as in earlier work; conditions: in vitro studies; cited from earlier work
# OCT2 = test system: OCT2; set-up: method as in earlier work; conditions: in vitro studies; cited from earlier work
# [2] = test system: epithelial ovarian cancer cell lines; conditions: drugs given separately or co-administered; cited from earlier work
# BCRP = test system: BCRP; set-up: method as in earlier work; conditions: in vitro studies; cited from earlier work
# [3] = 100 mg/kg, IIIOLA: olaparib 100 mg/kg b.w. oral single dose alone
# [4] = 100 mg/kg, IMET+OLA: metformin 100 mg/kg b.w. + olaparib 100 mg/kg b.w. oral single dose
# [5] = IIIOLA: olaparib 100 mg/kg b.w. oral single dose alone
# [6] = IMET+OLA: metformin 100 mg/kg b.w. + olaparib 100 mg/kg b.w. oral single dose
smiles,measurement,setting,value
"O=C(c1cc(Cc2n[nH]c(=O)c3ccccc23)ccc1F)N1CCN(C(=O)C2CC2)CC1 [olaparib, Olaparib]",inhibition of MATE1,MATE1,inhibits
same,inhibition of OATP1B1,OATP1B1,inhibits
same,inhibition of OAT3,OAT3,inhibits
same,concentration at 0.083 h,"[1]; 100 mg/kg, t 0.083 h, IIIOLA (olaparib alone)",1080 ng/mL
same,concentration at 0.167 h,"[1]; 100 mg/kg, t 0.167 h, IIIOLA (olaparib alone)",2220 ng/mL
same,concentration at 0.333 h,"[1]; 100 mg/kg, t 0.333 h, IIIOLA (olaparib alone)",3790 ng/mL
same,concentration at 0.5 h,"[1]; 100 mg/kg, t 0.500 h, IIIOLA (olaparib alone)",4590 ng/mL
same,concentration at 0.75 h,"[1]; 100 mg/kg, t 0.750 h, IIIOLA (olaparib alone)",4440 ng/mL
same,concentration at 1 h,"[1]; 100 mg/kg, t 1 h, IIIOLA (olaparib alone)",7110 ng/mL
same,concentration at 2 h,"[1]; 100 mg/kg, t 2 h, IIIOLA (olaparib alone)",6050 ng/mL
same,concentration at 3 h,"[1]; 100 mg/kg, t 3 h, IIIOLA (olaparib alone)",4140 ng/mL
same,concentration at 4 h,"[1]; 100 mg/kg, t 4 h, IIIOLA (olaparib alone)",528 ng/mL
same,concentration at 6 h,"[1]; 100 mg/kg, t 6 h, IIIOLA (olaparib alone)",1460 ng/mL
same,concentration at 8 h,"[1]; 100 mg/kg, t 8 h, IIIOLA (olaparib alone)",851 ng/mL
same,concentration at 10 h,"[1]; 100 mg/kg, t 10 h, IIIOLA (olaparib alone)",480 ng/mL
same,concentration at 12 h,"[1]; 100 mg/kg, t 12 h, IIIOLA (olaparib alone)",196 ng/mL
same,concentration at 24 h,"[1]; 100 mg/kg, t 24 h, IIIOLA (olaparib alone)",27.2 ng/mL
same,concentration at 0.083 h,"[1]; t 0.083 h, IMET+OLA (metformin and olaparib)",1530 ng/mL
same,concentration at 0.167 h,"[1]; t 0.167 h, IMET+OLA (metformin and olaparib)",4270 ng/mL
same,concentration at 0.333 h,"[1]; t 0.333 h, IMET+OLA (metformin and olaparib)",7190 ng/mL
same,concentration at 0.5 h,"[1]; t 0.500 h, IMET+OLA (metformin and olaparib)",7240 ng/mL
same,concentration at 0.75 h,"[1]; t 0.750 h, IMET+OLA (metformin and olaparib)",7770 ng/mL
same,concentration at 1 h,"[1]; t 1 h, IMET+OLA (metformin and olaparib)",7120 ng/mL
same,concentration at 2 h,"[1]; t 2 h, IMET+OLA (metformin and olaparib)",6220 ng/mL
same,concentration at 3 h,"[1]; t 3 h, IMET+OLA (metformin and olaparib)",4080 ng/mL
same,concentration at 4 h,"[1]; t 4 h, IMET+OLA (metformin and olaparib)",3200 ng/mL
same,concentration at 6 h,"[1]; t 6 h, IMET+OLA (metformin and olaparib)",1190 ng/mL
same,concentration at 8 h,"[1]; t 8 h, IMET+OLA (metformin and olaparib)",490 ng/mL
same,concentration at 10 h,"[1]; t 10 h, IMET+OLA (metformin and olaparib)",155 ng/mL
same,concentration at 12 h,"[1]; t 12 h, IMET+OLA (metformin and olaparib)",94.4 ng/mL
same,concentration at 24 h,"[1]; t 24 h, IMET+OLA (metformin and olaparib)",74.8 ng/mL
same,AUC(0-inf),[1]; [3],28600 ng·h/mL
same,AUC(0-t),[1]; [3],28300 ng·h/mL
same,Cmax,[1]; [3],8720 ± 6800 ng/mL
same,Tmax,[1]; [3],1.18 ± 0.91 h
same,Vd/F,[1]; [3],22.5 ± 24.8 L
same,k el,[1]; [3],0.000122 s⁻¹
same,AUC(0-inf),[1]; [4],29000 ng·h/mL
same,AUC(0-t),[1]; [4],28300 ng·h/mL
same,Cmax,[1]; [4],9420 ± 6330 ng/mL
same,Tmax,[1]; [4],1.11 ± 0.75 h
same,Vd/F,[1]; [4],12.5 ± 11.6 L
same,k el,[1]; [4],9.44e-05 s⁻¹
same,Cl/F,[1]; [5],7.84 ± 15.21 l/h and 7.84 ± 15.21 (193.9) l/h
same,t0.5,[1]; [5],4.79 ± 6.06 (126.5) h
same,Cl/F,[1]; [6],2.62 ± 2.07 l/h and 2.62 ± 2.07 (79.0) l/h
same,t0.5,[1]; [6],3.18 ± 2.28 (71.7) h
same,C_ola,"[1]; t 0.083 h, IMET+OLA (metformin and olaparib), individual rats 9-16",399.8 ng/mL and 205.5 ng/mL and 1282.8 ng/mL and 2905.9 ng/mL and 1816.4 ng/mL and 1671.7 ng/mL and 346.2 ng/mL and 3579.7 ng/mL
same,C_ola,"[1]; t 0.167 h, IMET+OLA (metformin and olaparib), individual rats 9-16",735.8 ng/mL and 409.9 ng/mL and 5081.5 ng/mL and 9225.7 ng/mL and 5056.5 ng/mL and 3857.8 ng/mL and 1362.6 ng/mL and 8409.9 ng/mL
same,C_ola,"[1]; t 0.333 h, IMET+OLA (metformin and olaparib), individual rats 9-16",1895.1 ng/mL and 1378.1 ng/mL and 6639.2 ng/mL and 14659.7 ng/mL and 8931.6 ng/mL and 11236.6 ng/mL and 1385.6 ng/mL and 11426.1 ng/mL
same,C_ola,"[1]; t 0.500 h, IIIOLA (olaparib alone), individual rats 1-8",3742.4 ng/mL and 535.2 ng/mL and 12507.8 ng/mL and 7237.7 ng/mL and 6302.7 ng/mL and 1652.9 ng/mL and 418.2 ng/mL and 8077.9 ng/mL
same,C_ola,"[1]; t 0.500 h, IMET+OLA (metformin and olaparib), individual rats 9-16",3714.2 ng/mL and 1709.6 ng/mL and 7002.5 ng/mL and 13973.1 ng/mL and 6376.6 ng/mL and 773.6 ng/mL and 17095.7 ng/mL
same,C_ola,"[1]; t 0.750 h, IIIOLA (olaparib alone), individual rats 1-8",3804.2 ng/mL and 2586.8 ng/mL and 15300.4 ng/mL and 11009.1 ng/mL and 7991.7 ng/mL and 1511.2 ng/mL and 355.6 ng/mL and 8277 ng/mL
same,C_ola,"[1]; t 0.750 h, IMET+OLA (metformin and olaparib), individual rats 9-16",3217.4 ng/mL
same,C_ola,"[1]; t 1 h, IIIOLA (olaparib alone), individual rats 1-8",6130.9 ng/mL and 3469.6 ng/mL and 13706 ng/mL and 16348.7 ng/mL and 9042.2 ng/mL and 1418.9 ng/mL and 698.2 ng/mL and 6102.6 ng/mL
same,C_ola,"[1]; t 2 h, IIIOLA (olaparib alone), individual rats 1-8",8834.3 ng/mL and 2628.7 ng/mL and 19817.4 ng/mL and 10845 ng/mL and 3432.4 ng/mL and 1456.7 ng/mL and 45.1 ng/mL and 1370.2 ng/mL
same,C_ola,"[1]; t 3 h, IIIOLA (olaparib alone), individual rats 1-8",10275 ng/mL and 2662.1 ng/mL and 12843.4 ng/mL and 4820.1 ng/mL and 969 ng/mL and 1168.9 ng/mL and 6.7 ng/mL and 409.4 ng/mL
same,C_ola,"[1]; t 4 h, IIIOLA (olaparib alone), individual rats 1-8",437.9 ng/mL and 948.8 ng/mL and 197 ng/mL
same,C_ola,"[1]; t 6 h, IIIOLA (olaparib alone), individual rats 1-8",5403.6 ng/mL and 829.1 ng/mL and 4359.8 ng/mL and 822.4 ng/mL and 31.7 ng/mL and 206.3 ng/mL and 4.8 ng/mL and 35.7 ng/mL
same,C_ola,"[1]; t 8 h, IIIOLA (olaparib alone), individual rats 1-8",2408.4 ng/mL and 295.6 ng/mL and 2024.1 ng/mL and 243.9 ng/mL and 17.4 ng/mL and 116.3 ng/mL
same,C_ola,"[1]; t 10 h, IIIOLA (olaparib alone), individual rats 1-8",701.7 ng/mL and 75.4 ng/mL and 1071 ng/mL and 70.2 ng/mL
same,C_ola,"[1]; t 12 h, IIIOLA (olaparib alone), individual rats 1-8",362.3 ng/mL and 53.7 ng/mL and 337 ng/mL and 32.3 ng/mL
same,C_ola,"[1]; t 24 h, IIIOLA (olaparib alone), individual rats 1-8",34.8 ng/mL and 36.4 ng/mL and 10.4 ng/mL
same,inhibition of MATE2K,MATE2K,inhibits
same,inhibition of OCT1,OCT1,inhibits
same,inhibition of OCT2,OCT2,inhibits
same,percentage of late apoptotic cells,[2],5.1%
same,inhibition of BCRP,BCRP,inhibits
